Consider 8 compounds from ChEMBL document CHEMBL1201862, “PubChem BioAssay data set” (2004).

Test [1] deals with HEK293. The experiment in a line: cells. It counts as functional, cell-based. The conditions noted are these: Homo sapiens.
For test [2], the target named is Nuclear receptor subfamily 0 group B member 1 (Homo sapiens, UniProt P51843). The experiment in a line: Luminescence-based cell-based high throughput dose response assay for inhibitors of the orphan nuclear receptor subfamily 0, group B, member 1 (DAX1; NR0B1). [Related pubchem assays (depositor defined):AID504766, AID504790]. It counts as functional.
For a further test, the target named is DNA topoisomerase (Yersinia pestis, UniProt A0A2S9PM60). Kind of test: Y. pestis Topo-I inhibitors, cleavage product readout, dose response, biochemical, cherry-pick (AID 588525).
For a further test, the target named is Hexokinase-1 (Homo sapiens, UniProt P19367). Kind of test: SAR analysis of small molecule inhibitors of hexokinase domain containing I (HKDC1) in the hexokinase 1 selectivity assay. [Related pubchem assays (depositor defined):AID493160, AID493190]. Format: functional.
For the next test, the target named is T1, Hexokinase HKDC1 (Homo sapiens, UniProt Q2TB90).
T1 sequence (Q2TB90 whole entry): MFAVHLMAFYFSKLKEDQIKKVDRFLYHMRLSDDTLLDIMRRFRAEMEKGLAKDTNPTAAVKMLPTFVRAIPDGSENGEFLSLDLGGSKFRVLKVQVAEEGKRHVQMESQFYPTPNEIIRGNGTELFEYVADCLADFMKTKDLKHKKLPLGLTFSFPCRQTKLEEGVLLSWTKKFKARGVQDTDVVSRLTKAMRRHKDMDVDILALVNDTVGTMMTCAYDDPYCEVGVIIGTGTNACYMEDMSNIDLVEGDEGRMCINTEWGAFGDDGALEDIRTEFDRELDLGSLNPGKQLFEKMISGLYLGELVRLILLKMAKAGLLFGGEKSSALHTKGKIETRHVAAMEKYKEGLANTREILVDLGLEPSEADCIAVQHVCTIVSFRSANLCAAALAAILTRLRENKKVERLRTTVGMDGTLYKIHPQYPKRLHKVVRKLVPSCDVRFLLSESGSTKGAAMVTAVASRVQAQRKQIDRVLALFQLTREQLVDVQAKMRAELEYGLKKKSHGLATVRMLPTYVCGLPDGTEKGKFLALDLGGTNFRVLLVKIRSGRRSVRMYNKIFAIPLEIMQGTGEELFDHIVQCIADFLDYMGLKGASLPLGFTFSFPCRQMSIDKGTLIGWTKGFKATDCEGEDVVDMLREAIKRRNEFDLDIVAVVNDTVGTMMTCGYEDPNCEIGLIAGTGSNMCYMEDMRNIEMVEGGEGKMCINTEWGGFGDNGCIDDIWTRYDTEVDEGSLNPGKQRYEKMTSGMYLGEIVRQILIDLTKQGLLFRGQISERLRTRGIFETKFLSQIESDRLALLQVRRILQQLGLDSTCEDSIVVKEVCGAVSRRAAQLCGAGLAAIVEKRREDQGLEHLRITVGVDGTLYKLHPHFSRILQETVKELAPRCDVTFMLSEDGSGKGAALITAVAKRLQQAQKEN
Kind of test: SAR analysis of small molecule inhibitors of hexokinase domain containing I (HKDC1). [Related pubchem assays (depositor defined):AID493160, AID493190]. Format: functional.

The next test has as its target Phospholipase D1 (Homo sapiens, UniProt Q13393). Kind of test: PLD1 inhibitor potency in cells, dose response (AID 602151).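 Also: cellular PLD1 assay in Calu-1 cells stimulated with PMA.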 Format: functional.
The target in a further test is Phospholipase D2 (Homo sapiens, UniProt O14939). The experiment in a line: PLD2 inhibitor potency in cells, dose response (AID 602147).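 Also: cellular assay in HEK293 cells overexpressing GFP-tagged PLD2.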 Format: functional.
Test [3] has as its target T2, Sentrin-specific protease 8 (Homo sapiens, UniProt Q96LD8).
T2 sequence (Q96LD8 whole entry): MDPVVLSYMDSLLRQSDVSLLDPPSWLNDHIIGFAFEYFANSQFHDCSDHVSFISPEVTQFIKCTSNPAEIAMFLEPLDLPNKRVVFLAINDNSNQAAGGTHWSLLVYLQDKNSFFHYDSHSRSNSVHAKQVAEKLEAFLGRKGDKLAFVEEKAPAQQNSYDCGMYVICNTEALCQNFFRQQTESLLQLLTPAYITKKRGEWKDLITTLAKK
The experiment in a line: SENP8 protease inhibitors, SAR follow-up, biochemical, luminescence (AID 504501). It counts as functional.

For the next test, the target named is T3, Caspase-3 (Homo sapiens, UniProt P42574).
T3 sequence (P42574 whole entry): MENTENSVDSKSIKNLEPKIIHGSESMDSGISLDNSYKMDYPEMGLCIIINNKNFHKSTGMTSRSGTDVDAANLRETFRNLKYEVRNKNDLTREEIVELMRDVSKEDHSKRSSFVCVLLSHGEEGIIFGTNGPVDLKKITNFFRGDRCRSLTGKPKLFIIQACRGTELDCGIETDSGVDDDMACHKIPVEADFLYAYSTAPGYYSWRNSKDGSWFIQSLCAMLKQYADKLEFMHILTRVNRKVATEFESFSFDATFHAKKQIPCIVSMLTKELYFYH
Kind of test: SAR Analysis of small molecule inhibitors of Sentrin-specific proteases (SENPs) using a Caspase-3 Selectivity assay. [Related pubchem assays (depositor defined):AID2540, AID2599, AID434973, AID489001]. It counts as functional.

Test [4] concerns the target T4, Sentrin-specific protease 6 (Homo sapiens, UniProt Q9GZR1).
T4 sequence (Q9GZR1 whole entry): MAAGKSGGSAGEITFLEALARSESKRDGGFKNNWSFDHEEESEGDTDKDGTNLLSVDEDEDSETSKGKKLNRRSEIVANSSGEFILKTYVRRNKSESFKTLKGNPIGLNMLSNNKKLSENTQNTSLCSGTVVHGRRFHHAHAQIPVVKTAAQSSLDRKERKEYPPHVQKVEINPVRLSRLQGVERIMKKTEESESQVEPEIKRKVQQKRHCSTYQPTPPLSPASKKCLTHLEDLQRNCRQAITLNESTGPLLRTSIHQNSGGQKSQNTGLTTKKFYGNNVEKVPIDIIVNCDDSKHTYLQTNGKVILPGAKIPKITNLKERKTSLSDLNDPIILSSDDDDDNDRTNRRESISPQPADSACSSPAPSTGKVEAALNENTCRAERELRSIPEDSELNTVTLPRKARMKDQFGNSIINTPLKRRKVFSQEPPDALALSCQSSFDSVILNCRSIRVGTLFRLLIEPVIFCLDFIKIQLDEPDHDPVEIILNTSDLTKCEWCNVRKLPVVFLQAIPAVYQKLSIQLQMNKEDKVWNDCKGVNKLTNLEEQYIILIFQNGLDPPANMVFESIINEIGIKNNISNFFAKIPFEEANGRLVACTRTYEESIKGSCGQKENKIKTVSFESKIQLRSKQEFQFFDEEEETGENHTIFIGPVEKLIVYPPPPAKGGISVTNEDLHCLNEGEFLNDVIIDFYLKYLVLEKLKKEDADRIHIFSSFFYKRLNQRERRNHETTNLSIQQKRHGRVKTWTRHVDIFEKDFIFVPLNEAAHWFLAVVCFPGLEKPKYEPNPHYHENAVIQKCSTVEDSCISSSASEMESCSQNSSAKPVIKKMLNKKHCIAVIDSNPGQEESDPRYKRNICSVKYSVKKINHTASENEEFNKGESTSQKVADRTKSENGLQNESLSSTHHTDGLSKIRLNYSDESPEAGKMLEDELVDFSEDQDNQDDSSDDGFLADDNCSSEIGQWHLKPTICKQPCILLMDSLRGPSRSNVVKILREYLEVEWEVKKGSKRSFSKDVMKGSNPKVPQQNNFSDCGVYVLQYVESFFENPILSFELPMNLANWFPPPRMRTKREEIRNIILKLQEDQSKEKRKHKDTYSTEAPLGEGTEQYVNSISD
The experiment in a line: SAR Analysis of small molecule inhibitors of Sentrin-specific protease 6 (SENP6) using a Luminescent assay. [Related pubchem assays (depositor defined):AID2582, AID2599]. It counts as functional.

Test [5] deals with T5, Sentrin-specific protease 7 (Homo sapiens, UniProt Q9BQF6).
T5 sequence (Q9BQF6 whole entry): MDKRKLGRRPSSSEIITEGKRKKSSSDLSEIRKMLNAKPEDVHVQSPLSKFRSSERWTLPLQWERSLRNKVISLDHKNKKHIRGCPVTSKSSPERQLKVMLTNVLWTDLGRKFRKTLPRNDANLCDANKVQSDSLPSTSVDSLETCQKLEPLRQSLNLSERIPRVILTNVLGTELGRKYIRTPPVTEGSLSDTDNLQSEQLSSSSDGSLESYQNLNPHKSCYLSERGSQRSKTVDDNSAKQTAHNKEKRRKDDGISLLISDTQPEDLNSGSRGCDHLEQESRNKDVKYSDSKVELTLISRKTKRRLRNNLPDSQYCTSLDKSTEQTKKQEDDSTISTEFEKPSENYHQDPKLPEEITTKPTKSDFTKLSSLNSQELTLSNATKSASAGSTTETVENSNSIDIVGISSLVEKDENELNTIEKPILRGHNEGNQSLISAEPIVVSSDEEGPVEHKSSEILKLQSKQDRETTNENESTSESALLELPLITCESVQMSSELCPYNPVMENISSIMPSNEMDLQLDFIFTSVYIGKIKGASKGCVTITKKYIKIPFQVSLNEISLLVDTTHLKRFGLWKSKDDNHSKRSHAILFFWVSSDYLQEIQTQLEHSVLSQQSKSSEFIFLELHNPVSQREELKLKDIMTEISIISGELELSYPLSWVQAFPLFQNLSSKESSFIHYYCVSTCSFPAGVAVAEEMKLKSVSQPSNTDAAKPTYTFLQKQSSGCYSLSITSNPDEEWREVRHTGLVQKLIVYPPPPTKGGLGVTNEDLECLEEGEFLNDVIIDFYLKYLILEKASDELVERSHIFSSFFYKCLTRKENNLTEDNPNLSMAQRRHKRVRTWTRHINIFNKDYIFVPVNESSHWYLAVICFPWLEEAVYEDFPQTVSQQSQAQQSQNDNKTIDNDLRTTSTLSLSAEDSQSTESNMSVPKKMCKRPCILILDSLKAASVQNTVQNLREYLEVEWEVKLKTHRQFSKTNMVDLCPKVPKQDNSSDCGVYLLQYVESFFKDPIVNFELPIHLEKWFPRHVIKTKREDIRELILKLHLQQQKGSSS
The experiment in a line: SENP7 protease inhibitors, SAR follow-up, biochemical, luminescence (AID 504497). It counts as functional.

Test [6] addresses DNA dC->dU-editing enzyme APOBEC-3G (Homo sapiens, UniProt Q9HC16). Kind of test: APOBEC3G deaminase inhibitors, SAR follow-up, biochemical, fluorescence, single-stranded DNA substrate (AID 602136). It counts as functional. Particulars: read-out: IC50_Mean.
The target in test [7] is DNA dC->dU-editing enzyme APOBEC-3A (Homo sapiens, UniProt P31941). Kind of test: SAR analysis of small molecule inhibitors of APOBEC3A DNA Deaminase via a fluorescence-based single-stranded DNA deaminase assay. It counts as functional. The conditions noted are these: read-out: IC50_Mean.
The target in test [8] is Sphingosine 1-phosphate receptor 2 (Homo sapiens, UniProt O95136). Kind of test: Late-stage fluorescence-based dose-response cell-based counterscreen assay to identify agonists of the Sphingosine 1-Phosphate Receptor 3 (S1P3): Sphingosine 1-Phosphate Receptor 2 (S1P2) agonist assay. It counts as functional.
The target in test [9] is Sphingosine 1-phosphate receptor 4 (Homo sapiens, UniProt O95977). Kind of test: Late-stage fluorescence-based dose-response cell-based counterscreen assay to identify agonists of the Sphingosine 1-Phosphate Receptor 3 (S1P3): Sphingosine 1-Phosphate Receptor 4 (S1P4) agonist assay. It counts as functional.
For test [10], the system named is HEK293. The experiment in a line: cytotoxicity in HEK293T NF-kB-Luc cells, SAR follow-up, cytotoxicity control for NF-kB activator project, cell-based, resazurin fluorescence (AID 493251). It counts as functional. Particulars: Homo sapiens.
The next test has as its system Jurkat. Kind of test: SAR Analysis of small molecule inhibitors of both B-cell and T-cell specific antigen receptor-induced NF-kB activation in a Jurkat cell line using a luminescence assay. [Related pubchem assays (depositor defined):AID435003, AID435022, AID465, AID489029]. It counts as functional, cell-based. The conditions noted are these: Homo sapiens.
Test [11] deals with HEK293. The experiment in a line: SAR Analysis of small molecule inhibitors of both B-cell and T-cell specific antigen receptor-induced NF-kB activation in a HEK-293T cell line using a luminescence assay. [Related pubchem assays (depositor defined):AID435003, AID435022, AID465, AID489019, AID489029]. Format: functional, cell-based. The conditions noted are these: Homo sapiens.

Each structure is given as a SMILES string. Activity calls are given as the source filed them.

Chain of DNA dC->dU-editing enzyme APOBEC-3G (Q9HC16 whole entry): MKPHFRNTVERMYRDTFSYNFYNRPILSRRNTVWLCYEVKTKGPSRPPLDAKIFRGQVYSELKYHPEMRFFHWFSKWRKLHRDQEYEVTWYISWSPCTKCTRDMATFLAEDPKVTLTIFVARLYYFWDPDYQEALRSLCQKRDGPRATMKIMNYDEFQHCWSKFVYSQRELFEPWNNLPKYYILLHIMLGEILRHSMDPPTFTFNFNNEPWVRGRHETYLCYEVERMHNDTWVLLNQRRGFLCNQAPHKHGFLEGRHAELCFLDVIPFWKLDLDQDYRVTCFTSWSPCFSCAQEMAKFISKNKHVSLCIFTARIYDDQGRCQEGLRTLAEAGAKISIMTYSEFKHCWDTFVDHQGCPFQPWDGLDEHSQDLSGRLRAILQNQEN
Chain of DNA dC->dU-editing enzyme APOBEC-3A (P31941 whole entry): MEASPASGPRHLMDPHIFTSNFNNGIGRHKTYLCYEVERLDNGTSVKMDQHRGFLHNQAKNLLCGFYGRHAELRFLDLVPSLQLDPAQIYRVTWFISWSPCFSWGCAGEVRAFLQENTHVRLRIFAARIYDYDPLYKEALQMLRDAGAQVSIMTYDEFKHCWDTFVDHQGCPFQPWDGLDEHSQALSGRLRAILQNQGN
Chain of Phospholipase D1 (Q13393 whole entry): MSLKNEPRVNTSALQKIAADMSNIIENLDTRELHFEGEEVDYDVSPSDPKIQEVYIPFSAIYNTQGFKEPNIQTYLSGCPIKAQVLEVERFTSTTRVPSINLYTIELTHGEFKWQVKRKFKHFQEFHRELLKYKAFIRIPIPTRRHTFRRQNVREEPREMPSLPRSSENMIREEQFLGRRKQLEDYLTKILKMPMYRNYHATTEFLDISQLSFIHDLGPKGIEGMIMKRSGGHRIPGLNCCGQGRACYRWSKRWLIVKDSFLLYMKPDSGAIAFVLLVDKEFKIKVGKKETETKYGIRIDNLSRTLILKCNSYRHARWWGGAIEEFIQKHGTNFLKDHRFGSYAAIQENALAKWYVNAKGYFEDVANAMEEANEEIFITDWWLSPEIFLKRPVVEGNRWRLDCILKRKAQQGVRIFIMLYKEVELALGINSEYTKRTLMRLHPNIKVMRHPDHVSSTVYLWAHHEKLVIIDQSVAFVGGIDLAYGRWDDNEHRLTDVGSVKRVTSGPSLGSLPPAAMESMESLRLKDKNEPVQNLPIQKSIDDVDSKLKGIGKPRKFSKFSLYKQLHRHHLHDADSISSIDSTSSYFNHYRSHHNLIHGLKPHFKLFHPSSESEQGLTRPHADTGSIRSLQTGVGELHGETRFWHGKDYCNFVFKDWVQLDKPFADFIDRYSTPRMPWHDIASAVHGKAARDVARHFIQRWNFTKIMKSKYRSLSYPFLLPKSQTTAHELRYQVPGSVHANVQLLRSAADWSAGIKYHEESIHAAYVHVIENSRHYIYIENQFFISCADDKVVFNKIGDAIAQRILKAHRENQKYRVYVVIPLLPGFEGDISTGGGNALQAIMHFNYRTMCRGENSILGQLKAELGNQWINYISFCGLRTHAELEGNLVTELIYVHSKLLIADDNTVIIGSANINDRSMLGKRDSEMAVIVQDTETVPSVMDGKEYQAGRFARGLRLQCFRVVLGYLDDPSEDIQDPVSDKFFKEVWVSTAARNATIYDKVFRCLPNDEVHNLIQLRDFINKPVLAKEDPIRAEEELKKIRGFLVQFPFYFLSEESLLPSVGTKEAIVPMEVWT
Chain of DNA topoisomerase (A0A2S9PM60 whole entry, the tested form may be a part): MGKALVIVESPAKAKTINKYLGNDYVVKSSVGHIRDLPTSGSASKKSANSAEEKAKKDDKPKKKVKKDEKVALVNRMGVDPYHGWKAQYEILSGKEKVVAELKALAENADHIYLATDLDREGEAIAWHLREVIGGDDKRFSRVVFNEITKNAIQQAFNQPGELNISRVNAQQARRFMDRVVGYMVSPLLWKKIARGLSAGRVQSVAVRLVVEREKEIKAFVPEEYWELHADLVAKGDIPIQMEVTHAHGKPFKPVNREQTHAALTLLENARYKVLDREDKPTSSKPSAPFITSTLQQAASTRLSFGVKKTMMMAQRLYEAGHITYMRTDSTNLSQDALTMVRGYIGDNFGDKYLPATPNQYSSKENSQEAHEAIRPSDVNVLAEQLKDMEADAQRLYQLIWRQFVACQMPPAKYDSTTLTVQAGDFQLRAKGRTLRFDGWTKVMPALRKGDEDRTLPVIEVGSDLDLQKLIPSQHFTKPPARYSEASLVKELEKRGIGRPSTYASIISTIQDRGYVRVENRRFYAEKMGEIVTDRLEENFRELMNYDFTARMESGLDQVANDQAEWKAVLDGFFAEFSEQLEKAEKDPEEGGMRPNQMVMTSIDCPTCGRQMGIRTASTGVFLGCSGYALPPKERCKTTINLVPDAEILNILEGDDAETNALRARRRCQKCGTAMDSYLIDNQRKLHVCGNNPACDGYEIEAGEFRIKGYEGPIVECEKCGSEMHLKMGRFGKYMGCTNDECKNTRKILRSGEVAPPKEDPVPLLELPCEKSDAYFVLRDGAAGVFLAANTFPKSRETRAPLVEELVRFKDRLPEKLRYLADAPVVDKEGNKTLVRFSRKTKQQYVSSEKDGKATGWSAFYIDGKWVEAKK
Chain of Sphingosine 1-phosphate receptor 4 (O95977 whole entry): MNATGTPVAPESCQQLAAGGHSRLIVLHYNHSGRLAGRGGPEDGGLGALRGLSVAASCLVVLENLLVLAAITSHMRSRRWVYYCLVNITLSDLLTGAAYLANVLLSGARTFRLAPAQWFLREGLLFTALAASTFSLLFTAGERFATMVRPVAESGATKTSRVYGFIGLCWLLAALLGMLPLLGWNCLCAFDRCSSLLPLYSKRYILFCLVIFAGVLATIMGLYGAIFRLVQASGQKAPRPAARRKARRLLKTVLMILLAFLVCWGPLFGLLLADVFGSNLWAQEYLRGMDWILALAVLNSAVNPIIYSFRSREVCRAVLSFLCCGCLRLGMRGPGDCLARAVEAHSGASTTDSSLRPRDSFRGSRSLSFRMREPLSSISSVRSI
Chain of Hexokinase-1 (P19367 whole entry, the tested form may be a part): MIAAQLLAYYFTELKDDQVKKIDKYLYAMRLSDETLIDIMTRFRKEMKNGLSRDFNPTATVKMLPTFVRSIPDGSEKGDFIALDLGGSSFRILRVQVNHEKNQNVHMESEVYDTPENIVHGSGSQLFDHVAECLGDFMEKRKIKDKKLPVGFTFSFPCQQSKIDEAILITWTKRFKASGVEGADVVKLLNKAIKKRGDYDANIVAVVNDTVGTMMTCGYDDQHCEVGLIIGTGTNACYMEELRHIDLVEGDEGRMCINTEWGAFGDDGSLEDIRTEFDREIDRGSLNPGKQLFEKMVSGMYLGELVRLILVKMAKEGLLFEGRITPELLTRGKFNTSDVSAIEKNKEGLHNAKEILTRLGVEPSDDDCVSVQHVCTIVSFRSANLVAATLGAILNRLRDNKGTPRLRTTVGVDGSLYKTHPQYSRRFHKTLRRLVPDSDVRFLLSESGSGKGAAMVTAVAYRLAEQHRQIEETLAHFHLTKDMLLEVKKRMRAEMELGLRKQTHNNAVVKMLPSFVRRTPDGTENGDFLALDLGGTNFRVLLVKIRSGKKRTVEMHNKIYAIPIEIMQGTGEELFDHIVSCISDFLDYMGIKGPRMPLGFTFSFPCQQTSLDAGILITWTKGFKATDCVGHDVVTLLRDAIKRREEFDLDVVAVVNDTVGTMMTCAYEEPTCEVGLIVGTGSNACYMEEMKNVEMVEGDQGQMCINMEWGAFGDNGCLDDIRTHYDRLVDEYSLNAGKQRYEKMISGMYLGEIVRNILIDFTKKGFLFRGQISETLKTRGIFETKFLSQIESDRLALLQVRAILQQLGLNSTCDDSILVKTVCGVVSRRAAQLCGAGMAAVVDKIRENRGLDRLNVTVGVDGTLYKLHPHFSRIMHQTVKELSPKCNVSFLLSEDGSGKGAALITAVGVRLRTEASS
Chain of Phospholipase D2 (O14939 whole entry): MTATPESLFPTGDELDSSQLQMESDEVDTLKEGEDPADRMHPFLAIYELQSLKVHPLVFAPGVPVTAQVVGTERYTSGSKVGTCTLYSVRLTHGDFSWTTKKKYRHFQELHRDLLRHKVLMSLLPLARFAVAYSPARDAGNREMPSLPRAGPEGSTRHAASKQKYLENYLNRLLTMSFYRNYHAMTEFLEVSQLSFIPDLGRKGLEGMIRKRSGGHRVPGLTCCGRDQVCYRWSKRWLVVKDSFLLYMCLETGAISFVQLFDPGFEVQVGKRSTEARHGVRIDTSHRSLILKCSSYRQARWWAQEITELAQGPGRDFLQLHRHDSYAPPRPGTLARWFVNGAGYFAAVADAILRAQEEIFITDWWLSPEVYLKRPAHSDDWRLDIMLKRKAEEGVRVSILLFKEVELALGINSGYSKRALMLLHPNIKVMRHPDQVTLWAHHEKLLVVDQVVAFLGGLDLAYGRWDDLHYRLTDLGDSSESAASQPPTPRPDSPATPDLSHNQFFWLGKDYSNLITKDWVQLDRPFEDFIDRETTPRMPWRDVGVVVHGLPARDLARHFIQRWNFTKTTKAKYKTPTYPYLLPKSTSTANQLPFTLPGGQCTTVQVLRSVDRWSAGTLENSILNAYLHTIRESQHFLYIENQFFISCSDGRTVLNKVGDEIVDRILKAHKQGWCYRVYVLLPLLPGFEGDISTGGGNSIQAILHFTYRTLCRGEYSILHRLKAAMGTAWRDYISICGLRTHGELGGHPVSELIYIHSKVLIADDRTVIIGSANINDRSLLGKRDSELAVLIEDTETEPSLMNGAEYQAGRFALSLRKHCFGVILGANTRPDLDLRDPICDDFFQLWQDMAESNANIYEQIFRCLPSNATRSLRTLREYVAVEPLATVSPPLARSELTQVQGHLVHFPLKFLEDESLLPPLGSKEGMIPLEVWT

For `FC(F)(F)c1nnc2ccc(NCc3cccnc3)nn12`, the IC50 is 50.4 µM (inactive) with HEK293 [1] and > 67.5 µM (inactive) in test [2].
Regarding `COc1cc2ccccc2cc1C(=O)OCC(=O)N(CC(C)C)c1c(N)n(Cc2ccccc2)c(=O)[nH]c1=O`, the AC50 on DNA topoisomerase was 20.8 µM (active).
In the case of `Cc1ccc(CSc2nnc(NC(=O)c3ccc4ncsc4c3)s2)cc1`, the IC50 at Hexokinase-1 and on Hexokinase HKDC1 was > 80 µM (inactive) in each case.
For the compound `O=C(NCCN1CCC(n2c(=O)[nH]c3ccccc32)CC1)c1cccc(F)n1`, the IC50 was 0.19 µM (active) on Phospholipase D1 and 1.3 µM (active) at Phospholipase D2.
With `CC(C)CC(=O)Nc1ccc(-c2nc3cc(Cl)ccc3o2)cc1`, the IC50 is > 99 µM (inactive) in test [3], 51.9 µM (active) on Caspase-3, > 99 µM (inactive) in [4] and > 99 µM (inactive) in test [5].
On to `Cn1c(SCC(=O)N(Cc2ccccc2)Cc2ccco2)nnc1-c1ccc(F)cc1`, for which the IC50 in test [6] and in [7] was > 99 µM (inactive) each time.
Consider `CC1CCCCC1N(C(=O)c1cc(C2CC2)on1)C1CCCCC1` (stereo not drawn), for which the EC50 in [8] and in [9] was > 50 µM (inactive) each time.
Regarding `Nc1cccc2cccnc12` [8-AMINOQUINOLINE], the IC50 is > 80 µM (inactive) in the test with HEK293 [10], > 79 µM (inactive) with Jurkat and > 79 µM (inactive) in the test with HEK293 [11].
